Test results as given in patent publication US5508428A, “Spiro compound” (Daiichi Phamaceutical Co., Ltd., priority 1988, dated 1996).
≈ marks a conversion by molar mass, not a printed value.

What was measured:
Format in all cases: cell-based
Str. pyogenes, G-36 = test: Antibacterial activity (MIC), Str. pyogenes G-36; conditions: for MIC: Streptococcus pyogenes, G36, Str. pyogenes
Method: (§1) The antibacterial activity assays were performed by the method specified by Japan Society of Chemotherapy (Chemotherapy 29(1), 76 (1981). The table of antibacterial activity is followed by the reaction schemes for the synthesis of various spiro ring-containing cyclic amine derivatives, intermediate compounds for synthesis of quinolone rings and synthesis of various spiro compounds.

Pr. mirabillis, IF0-3849 = test: Antibacterial activity (MIC), Pr. mirabillis IF0-3849
Method: as §1

Ser. marcescens, 10100 = test: Antibacterial activity (MIC), Ser. marcescens 10100; conditions: for MIC: Serratia marcescens, 10100, Ser. marcescens
Method: as §1

S. aureus, 209P = test: Antibacterial activity (MIC), S. aureus 209P; conditions: for MIC: Staphylococcus aureus
Method: as §1

[1] = test system: Ps. maltophilia, IID-1275; test: Antibacterial activity (MIC), Ps. maltophilia IID-1275; conditions: for MIC: Stenotrophomonas maltophilia, IID1275, Ps. maltophilia
Method: as §1

Ps. aeruginosa, 32121 = test: Antibacterial activity (MIC), Ps. aeruginosa 32121; conditions: for MIC: Pseudomonas aeruginosa, 32121, Ps. aeruginosa
Method: as §1

[2] = test system: Str. faecalis, ATCC-19433; test: Antibacterial activity (MIC), Str. faecalis ATCC-19433; conditions: for MIC: Enterococcus faecalis, ATCC19433, Str. faecalis; for Antibacterial Activity (MIC): Str. faecalis
Method: as §1

Ps. aeruginosa, 32104 = test: Antibacterial activity (MIC), Ps. aeruginosa 32104; conditions: for MIC: Pseudomonas aeruginosa, 32104, Ps. aeruginosa; for Antibacterial Activity (MIC): Ps. aeruginosa
Method: as §1

S. epidermidis, 56500 = test: Antibacterial activity (MIC), S. epidermidis 56500; conditions: for MIC: Staphylococcus epidermidis, 56500, S. epidermidis; for Antibacterial Activity (MIC): S. epidermidis
Method: as §1

E. coli, NIHJ = test: Antibacterial activity (MIC), E. coli NIHJ; conditions: for MIC: Escherichia coli
Method: as §1

Pr. vulgaris, 08601 = test: Antibacterial activity (MIC), Pr. vulgaris 08601; conditions: for MIC: Proteus vulgaris
Method: as §1

S. flexneri, 2A 5503 = test: Antibacterial activity (MIC), S. flexneri 2A 5503; conditions: for MIC: Shigella flexneri, 2A5503
Method: as §1

SMILES	MIC (Str. pyogenes, G-36) [µg/mL]	MIC (Pr. mirabillis, IF0-3849) [µg/mL]	MIC (Ser. marcescens, 10100) [µg/mL]	MIC (S. aureus, 209P) [µg/mL]	MIC [1] [µg/mL]	MIC (Ps. aeruginosa, 32121) [µg/mL]	MIC [2] [µg/mL]	MIC (Ps. aeruginosa, 32104) [µg/mL]	MIC (S. epidermidis, 56500) [µg/mL]	MIC (E. coli, NIHJ) [µg/mL]	MIC (Pr. vulgaris, 08601) [µg/mL]	MIC (S. flexneri, 2A 5503) [µg/mL]	other results
O=C(O)c1cn(C2CC2)c2c(F)c(N3CC(CO)C4(CCC4)C3)c(F)cc2c1=O (stereo not drawn) [Compound 108, 1-Cyclopropyl-6,8,difluoro-7-(8-hydroxymethyl-6-azaspiro-[3.4]octan-6-yl)-4-oxo-1,4-dihydroquinoline-3-carboxylic acid]	0.39 (≈ 0.964 µM)	0.78 (≈ 1.93 µM)	1.56 (≈ 3.86 µM)	≤ 0.05	1.56 (≈ 3.86 µM)	0.39 (≈ 0.964 µM)	0.2 (≈ 0.495 µM)	1.56 (≈ 3.86 µM)	≤ 0.05	0.2 (≈ 0.495 µM)	0.1 (≈ 0.247 µM)	0.2 (≈ 0.495 µM)	–
NC1CN(c2cc3c(cc2F)c(=O)c(C(=O)O)cn3-c2ccc(F)cc2F)CC12CC2 (stereo not drawn) [Compound 34, 7-(7-amino-5-azaspiro[2.4]heptan-5-yl)-6-fluoro-1-(2.4-difluorophenyl)-1,4-dihydro-4-oxoquinoline-3-carboxylic acid]	0.39 (≈ 0.908 µM)	0.39 (≈ 0.908 µM)	0.39 (≈ 0.908 µM)	0.1 (≈ 0.233 µM)	0.1 (≈ 0.233 µM)	0.2 (≈ 0.466 µM)	0.78 (≈ 1.82 µM)	0.39 (≈ 0.908 µM)	0.2 (≈ 0.466 µM)	≤ 0.05	0.2 (≈ 0.466 µM)	≤ 0.05	–
C[C@H]1COc2c(N3CC(N)C4(CC4)C3)c(F)cc3c(=O)c(C(=O)O)cn1c23 (single isomer, unassigned; (-)) [Compound 36b]	0.39 (≈ 1.04 µM)	0.1 (≈ 0.268 µM)	0.2 (≈ 0.536 µM)	≤ 0.05	0.39 (≈ 1.04 µM)	0.1 (≈ 0.268 µM)	0.39 (≈ 1.04 µM)	0.2 (≈ 0.536 µM)	0.1 (≈ 0.268 µM)	≤ 0.05	≤ 0.05	≤ 0.05	–
NC1CN(c2c(F)cc3c(=O)c(C(=O)O)cn(C4CC4)c3c2Cl)CC12CC2 (single isomer, unassigned) [Compound 32b, 7-(7-amino-5-azaspiro[2.4]heptan-5-yl)-8-chloro-1-cyclopropyl-6-fluoro-1,4-dihydro-4-oxoquinoline-3-carboxylic acid]	–	–	–	–	–	–	–	–	–	–	–	–	Antibacterial Activity (MIC) (Str. pyogenes, G-36; Str. pyogenes): 0.39 µg/mL; Antibacterial Activity (MIC) (Pr. mirabillis, IF0-3849): ≤ 0.05 µg/mL; Antibacterial Activity (MIC) (Ser. marcescens, 10100; Ser. marcescens): ≤ 0.05 µg/mL; Antibacterial Activity (MIC) (S. aureus, 209P): ≤ 0.05 µg/mL; Antibacterial Activity (MIC) ([1]; Ps. maltophilia): ≤ 0.05 µg/mL; Antibacterial Activity (MIC) (Ps. aeruginosa, 32121; Ps. aeruginosa): ≤ 0.05 µg/mL; Antibacterial Activity (MIC) [2]: 0.10 µg/mL; Antibacterial Activity (MIC) (Ps. aeruginosa, 32104): 0.10 µg/mL; Antibacterial Activity (MIC) (S. epidermidis, 56500): ≤ 0.05 µg/mL; Antibacterial Activity (MIC) (E. coli, NIHJ): ≤ 0.05 µg/mL; Antibacterial Activity (MIC) (Pr. vulgaris, 08601): ≤ 0.05 µg/mL; Antibacterial Activity (MIC) (S. flexneri, 2A 5503): ≤ 0.05 µg/mL
CC(C)(C)n1cc(C(=O)O)c(=O)c2cc(F)c(N3CC(N)C4(CC4)C3)nc21 (stereo not drawn) [Compound 41b, 7-(7-Amino-5-azaspiro[2.4]heptan-5-yl)-1,4-dihydro-6-fluoro-1-(2-methyl-2-propyl)-4-oxo-1,8-naphthyridine-3-carboxylic acid]	0.39 (≈ 1.04 µM)	0.2 (≈ 0.534 µM)	0.1 (≈ 0.267 µM)	≤ 0.05	0.1 (≈ 0.267 µM)	0.1 (≈ 0.267 µM)	0.2 (≈ 0.534 µM)	0.2 (≈ 0.534 µM)	0.1 (≈ 0.267 µM)	≤ 0.05	0.1 (≈ 0.267 µM)	≤ 0.05	–
NC1CN(c2c(F)cc3c(=O)c(C(=O)O)cn(C4CC4)c3c2Cl)CC12CC2 (single isomer, unassigned) [Compound 32a, 7-(7-amino-5-azaspiro[2.4]heptan-5-yl)-8-chloro-1-cyclopropyl-6-fluoro-1,4-dihydro-4-oxoquinoline-3-carboxylic acid]	0.78 (≈ 1.99 µM)	0.1 (≈ 0.255 µM)	0.1 (≈ 0.255 µM)	0.1 (≈ 0.255 µM)	0.1 (≈ 0.255 µM)	0.1 (≈ 0.255 µM)	–	–	–	≤ 0.05	≤ 0.05	≤ 0.05	Antibacterial Activity (MIC) [2]: 0.39 µg/mL; Antibacterial Activity (MIC) (Ps. aeruginosa, 32104): 0.39 µg/mL; Antibacterial Activity (MIC) (S. epidermidis, 56500): 0.20 µg/mL
NC1CN(c2c(F)cc3c(=O)c(C(=O)O)cn(C4CC4)c3c2F)CC12CCC2 (stereo not drawn) [Compound 94]	0.39 (≈ 1 µM)	0.1 (≈ 0.257 µM)	0.1 (≈ 0.257 µM)	≤ 0.05	0.2 (≈ 0.514 µM)	0.39 (≈ 1 µM)	0.2 (≈ 0.514 µM)	0.1 (≈ 0.257 µM)	≤ 0.05	≤ 0.05	≤ 0.05	≤ 0.05	–
O=C(O)c1cn(C2CC2)c2cc(N3CCNC4(CC4)C3)c(F)cc2c1=O [Compound 37, 1-Cyclopropyl-7-(4,7-diazaspiro[2.5]octan-7-yl)-6-fluoro-1,4-dihydro-4-oxoquinoline-3-carboxylic acid]	0.78 (≈ 2.18 µM)	≤ 0.05	0.1 (≈ 0.28 µM)	0.2 (≈ 0.56 µM)	0.39 (≈ 1.09 µM)	0.2 (≈ 0.56 µM)	0.78 (≈ 2.18 µM)	0.2 (≈ 0.56 µM)	0.39 (≈ 1.09 µM)	≤ 0.05	≤ 0.05	≤ 0.05	–
N[C@@H]1CN(c2nc3c(cc2F)c(=O)c(C(=O)O)cn3-c2ccc(F)cc2F)CC12CC2 [Compound 111b, (-)-7-[7-(S)-amino-5-azaspiro[2.3]heptan-5-yl)-6-fluoro-1-(2,4-difluorophenyl)-1,4-dihydro-4-oxo-1,8-naphthyridine-3-carboxylate]	0.2 (≈ 0.465 µM)	0.2 (≈ 0.465 µM)	0.1 (≈ 0.232 µM)	≤ 0.05	0.2 (≈ 0.465 µM)	0.1 (≈ 0.232 µM)	0.39 (≈ 0.906 µM)	0.2 (≈ 0.465 µM)	0.1 (≈ 0.232 µM)	≤ 0.05	≤ 0.05	≤ 0.05	–
NC1CN(c2c(F)cc3c(=O)c(C(=O)O)cn(C4CC4)c3c2F)CC12CC2 (stereo not drawn) [Compound 31, 7-(7-Amino-5-azaspiro[2.4]heptan-5-yl)-1-cyclopropyl-6,8-difluoro-1,4-dihydro-4-oxoquinoline-3-carboxylic Acid]	0.39 (≈ 1.04 µM)	≤ 0.05	≤ 0.05	≤ 0.05	≤ 0.05	≤ 0.05	0.2 (≈ 0.533 µM)	0.1 (≈ 0.266 µM)	0.1 (≈ 0.266 µM)	≤ 0.05	≤ 0.05	≤ 0.05	–
